The record followed here is US20130303465A1, “Cylodextrin Complexation Methods for Formulating Peptide Proteasome Inhibitors” (ONYX THERAPEUTICS, INC., priority 2012, published 2013).

A short description of data set [1]: physchem.
The nature of data set [2]: Solubility of carfilzomib as a function of SBECD concentration, pH and temperature. The format is physicochemical. Conditions: SBECD solutions, citric acid 30 mM, pH 1.5 and pH 3.5, 5° C. and 25° C., 24 hours to equilibrate, FIG. 6. How it is done: The experiments at acidic conditions below the target pH values and titrated to pH 1.5 or 3.5 using aqueous sodium hydroside solution. Measurements of solubilized concentration were those from samples analyzed after 24 hours of time to equilibrate.

Data set [3] is described as follows: Slurry complexation of CFZ-API with SBECD and citric acid: dissolved complexed concentration. The format is physicochemical. How it is done: In a 525 L stainless steel jacketed cooled tank controlled to 2° C.-8° C., a suspension of 2.0 kg carfilzomib-API (CFZ-API), 246 kg water for injection (WFI), and 100 kg sulfobutylether beta-cyclodextrin (SBECD) was prepared. Specifically, in the 525 L stainless steel jacketed cooled tank controlled to 2° C.-8° C., 100 kg SBECD was dissolved in 246 kg WFI. The Carfilzomib suspension was then prepared using 2.0 kg of CFZ-API. Mixing was performed using an impeller mixer to maintain suspension of the CFZ-API solids and dissolve the SBECD. In the same vessel, a probe style rotor-stator high shear mixer (homogenizer) was used as well as the low shear impeller. The high shear mixer was operated for approximately 1 hour yielding an even suspension and reduction of particle size for any larger primary particles or agglomerated API. After a suspension was achieved, 1.96 kg of citric acid was added as a 16% aqueous solution. The pH of the solution was then lowered inducing partial solubilization of the CFZ-API followed by and complexation due to the presence of SBECD. Mixing was continued for a further 24 hours with both the impeller and the high shear mixer and a dissolved concentration of CFZ-API of greater than 5.1 mg/mL was achieved. […]

Where only a bound is given, the exact number is not on record here.

By solubility is commonly meant how much of the substance goes into solution per volume. Higher therefore signals much dissolved substance. Take `CC(C)C[C@H](NC(=O)[C@H](CCc1ccccc1)NC(=O)CN1CCOCC1)C(=O)N[C@@H](Cc1ccccc1)C(=O)N[C@@H](CC(C)C)C(=O)[C@@]1(C)CO1` [carfilzomib]: the solubility in data set [1] is under 10 µg/mL. Also, the “solubility difference between low and high temperature” value in data set [2] is reported as “No significant differences in solubility”. Moreover, the “effect of higher SBECD concentration on solubility” value in data set [3] (FIG. 3) is given as “increased the solubility”. Further, the “dissolved concentration of CFZ-API” value in data set [3] (SBECD/WFI suspension plus citric acid, mixing 24 hours, 2-8° C., 400 L batch) is on record as “greater than 5.1 mg/mL”.
